Measured values published in US20230414502A1, “Method for Preparing an Aqueous Nanocrystalline Suspension Containing Nanocrystals of Pharmaceutically Active Ingredient and a Combination of Stabilizers, Aqueous Nanocrystalline Suspension and Methods of Use Thereof” (Vysoka skola chemicko-technologicka v Praze, priority 2022, published 2023).
“Also recorded” adds a separate entry of the source.

Legend:
[1] = Microscopy of precipitation/recrystallization in DMEM + 10% FBS or PBS, no cells; format: physicochemical; settings: for Solubility in DMSO (in words): 500 μg/mL at most 1% DMSO not reachable; for Recrystallization of API added from DMSO into DMEM + 10% FBS (microscopy): 1% DMSO, 100 μg/mL abiraterone acetate and telmisartan, 500 μg/mL others, no cells
macrophages J774A.1 = test: Microscopy of samples incubated with macrophages; format: cell-based, mouse; settings: for Recrystallization/precipitation of API added from DMSO, tested with J774A.1 (microscopy): 1% DMSO, 100 or 500 μg/mL, DMEM + 10% FBS
Procedure: For the purpose of the crystallization form DMSO solution study, the J774A.1 cells in the DMEM+10% FBS+1% AA medium were inoculated in a 96 well-plate with a glass-bottom (Cellvis, P96-1.5H-N) with a density of 2×10^4 cells/well and left to adhere overnight. Then, the medium was removed by aspiration, and nanocrystal samples pre-diluted in the fresh medium were added (from 500 μg/mL decreasing in half concentration trend; 90 μL/well). In some cases (abiraterone acetate, telmisartan), it was not possible to reach 500 μg/mL API concentration together with total DMSO content of maximum 1% (1% DMSO is top limit standard in biochemical testing considering the DMSO toxicity and effect on the cell viability and performance) and therefore these substances were tested at 100 μg/mL concentration. Here the great potential of nanocrystals is clearly presented, since the nanocrystal samples were possible to be prepared and tested at 500 μg/mL even in cases where the DMSO solvents would not be accepted for in vitro testing. If possible, all samples were tested at concentration 500 μg/mL (from nanocrystals or from DMSO stock solutions) and incubated in the well-plate for 18 h.

[2] = literature values, cell line not given; read-out: IC50 documented for reference drugs; cited from earlier work

SMILES	Recrystallization of API added from DMSO into DMEM + 10% FBS (microscopy) [1]	IC50 [2] [µM]	also measured
CCCc1nc2c(C)cc(-c3nc4ccccc4n3C)cc2n1Cc1ccc(-c2ccccc2C(=O)O)cc1 [Telmisartan]	did not form macroscopic crystals	–	Solubility in DMSO (in words) [1]: low solubility
CC(C)(C)c1cc(C(C)(C)C)c(NC(=O)c2c[nH]c3ccccc3c2=O)cc1O [Ivacaftor]	–	–	Recrystallization/precipitation of API added from DMSO, tested with J774A.1 (microscopy) (macrophages J774A.1): most significant recrystallization/precipitation; also recorded: precipitation/recrystallization from DMSO occurred and was well detectable; Effect on J774A.1 cells, API added as DMSO solution (macrophages J774A.1; 8-125 μg/mL): causes cell death (membrane blobbing)
CCOc1nc2cccc(C(=O)OC(C)OC(=O)OC3CCCCC3)c2n1Cc1ccc(-c2ccccc2-c2nnn[nH]2)cc1 (centres unmarked) [Candesartan cilexetil]	did not form macroscopic crystals	–	–
CC(=O)O[C@H]1CC[C@@]2(C)C(=CC[C@@H]3[C@@H]2CC[C@]2(C)C(c4cccnc4)=CC[C@@H]32)C1 [Abiraterone acetate]	formation of both new crystals and solid amorphous phase occurs	–	Solubility in DMSO (in words) [1]: low solubility
COc1cc(C2Oc3cc([C@H]4Oc5cc(O)cc(O)c5C(=O)[C@@H]4O)ccc3OC2CO)ccc1O (some centres unmarked) [Silybinin]	–	180	–
N.N.[Cl][Pt][Cl] [cisplatin]	–	181	–
O=c1[nH]cc(F)c(=O)[nH]1 [5-fluorouracil]	–	39	–
COc1cc(/C=C/C(=O)CC(=O)/C=C/c2ccc(O)c(OC)c2)ccc1O [Curcumin]	–	–	Recrystallization/precipitation of API added from DMSO, tested with J774A.1 (microscopy) (macrophages J774A.1): most significant recrystallization/precipitation; also recorded: precipitation/recrystallization from DMSO occurred and was well detectable
